Assay results from US10174035B2, “6-morpholinyl-2-pyrazolyl-9H-purine derivatives and their use as PI3K inhibitors” (Daiichi Sankyo Company, Limited, priority 2015, dated 2019).

The compounds below were run against recombinant PI3K δ enzyme (Homo sapiens (Human), UniProt O00329) (assay: In vitro enzyme assay (Kinase-Glo luminescent kinase assay), PI3Kδ).
Type: biochemical
Description: The Kinase-Glo luminescent kinase assay kit (from Promega) was used to measure kinase activity. In this assay, amount of ATP remaining in solution following a kinase reaction is measured. The effect of compounds on PI3Kδ inhibition was carried out by adding 2.29 μg/ml of recombinant PI3K δ enzyme (Proteros, Germany) to reaction mixture containing assay buffer (50 mM HEPES, pH 7.4, 50 mM NaCl, 0.05% CHAPS) supplemented with 10 mM MgCl2, 5 mM DTT, 60 μM Phosphatidyl inositol bisphosphate (PIP2) and 10 μM ATP in the absence or presence of different concentrations of the compounds in a final volume of 15 μl/well, in a 384 well plate. The reaction mixture was incubated for 2 hours at room temperature. At the end of incubation period the equal volume of Kinase-Glo plus (Promega, V3772), was added per well and the luminescence was measured after incubating for 10 minutes at room temperature in dark. Results were calculated by measuring the luminescence units of test samples to blanks containing no enzyme.
The compounds of the present invention were tested for their selectivity for PI3Kδ over PI3Kα, PI3Kβ and PI3Kγ following the above assay using specific recombinant enzymes (Proteros, Germany) for each kinase. Assay condition of kinase assay (PI3Kα, PI3Kβ, PI3Kγ and PI3Kδ) was as follows. Enzyme: 2.29 μg/mL; ATP: 10 μM; PIP2 substrate: 60 μM and Reaction Time: 2 hours.

Chain of recombinant PI3K δ enzyme (O00329 whole entry, species assumed): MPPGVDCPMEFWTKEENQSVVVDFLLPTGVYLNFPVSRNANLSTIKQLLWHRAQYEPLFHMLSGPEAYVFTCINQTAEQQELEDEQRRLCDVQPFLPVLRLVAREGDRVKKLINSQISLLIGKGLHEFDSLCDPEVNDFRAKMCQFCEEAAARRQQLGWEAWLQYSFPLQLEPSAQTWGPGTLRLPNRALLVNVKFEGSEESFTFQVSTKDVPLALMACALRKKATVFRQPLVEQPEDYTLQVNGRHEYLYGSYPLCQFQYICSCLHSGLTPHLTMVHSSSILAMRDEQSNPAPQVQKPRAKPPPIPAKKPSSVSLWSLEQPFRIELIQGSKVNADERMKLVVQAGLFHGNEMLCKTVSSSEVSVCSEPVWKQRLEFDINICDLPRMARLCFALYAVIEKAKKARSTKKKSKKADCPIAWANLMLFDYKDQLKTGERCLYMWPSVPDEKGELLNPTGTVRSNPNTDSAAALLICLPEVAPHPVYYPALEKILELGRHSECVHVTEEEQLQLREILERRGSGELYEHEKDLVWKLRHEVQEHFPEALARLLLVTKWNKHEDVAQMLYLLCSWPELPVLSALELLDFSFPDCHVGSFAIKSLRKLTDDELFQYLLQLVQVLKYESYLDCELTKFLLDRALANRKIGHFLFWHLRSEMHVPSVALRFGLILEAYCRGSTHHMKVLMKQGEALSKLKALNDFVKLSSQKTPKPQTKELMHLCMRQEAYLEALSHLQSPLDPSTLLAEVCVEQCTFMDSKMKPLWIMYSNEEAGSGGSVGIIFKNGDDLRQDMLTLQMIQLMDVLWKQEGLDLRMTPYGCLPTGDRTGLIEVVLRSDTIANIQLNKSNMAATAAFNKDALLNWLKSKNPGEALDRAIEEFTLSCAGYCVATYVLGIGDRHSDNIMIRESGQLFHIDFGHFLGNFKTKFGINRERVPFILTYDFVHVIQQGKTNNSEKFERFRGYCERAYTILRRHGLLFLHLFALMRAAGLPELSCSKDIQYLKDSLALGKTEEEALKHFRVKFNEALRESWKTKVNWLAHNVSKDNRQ
Chain of recombinant PI3K δ enzyme (P27986 whole entry partner, species assumed): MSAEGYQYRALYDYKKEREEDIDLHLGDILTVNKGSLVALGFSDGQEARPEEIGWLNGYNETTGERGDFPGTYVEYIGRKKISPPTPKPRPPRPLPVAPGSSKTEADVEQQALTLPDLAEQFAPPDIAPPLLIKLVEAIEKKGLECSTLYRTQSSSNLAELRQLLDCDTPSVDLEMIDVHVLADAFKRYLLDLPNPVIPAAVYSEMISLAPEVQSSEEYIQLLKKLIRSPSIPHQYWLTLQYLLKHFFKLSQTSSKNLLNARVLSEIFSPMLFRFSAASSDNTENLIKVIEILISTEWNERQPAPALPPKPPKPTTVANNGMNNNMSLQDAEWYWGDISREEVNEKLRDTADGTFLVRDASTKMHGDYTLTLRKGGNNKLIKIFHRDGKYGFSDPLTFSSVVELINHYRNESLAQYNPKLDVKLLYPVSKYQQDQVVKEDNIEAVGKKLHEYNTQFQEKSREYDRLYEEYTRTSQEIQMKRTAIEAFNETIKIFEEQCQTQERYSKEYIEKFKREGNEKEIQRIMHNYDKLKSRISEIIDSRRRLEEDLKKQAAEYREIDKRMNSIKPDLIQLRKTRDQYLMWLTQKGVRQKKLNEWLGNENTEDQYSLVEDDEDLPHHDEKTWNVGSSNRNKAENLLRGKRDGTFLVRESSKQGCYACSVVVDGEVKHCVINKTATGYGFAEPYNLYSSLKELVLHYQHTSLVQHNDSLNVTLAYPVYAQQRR

SMILES | IC50
Cn1cc(-c2nc(N3CCOCC3)c3nc(C(=O)N4CCC[C@H](N5CCOCC5)C4)[nH]c3n2)cn1 [compound 13, [2-(1-Methyl-1H-pyrazol-4-yl)-6-(morpholin-4-yl)-9H-purin-8-yl][(3S)-3-(morpholin-4-yl)piperidin-1-yl]methanone] | 0.088 µM
Cn1cc(-c2nc(N3CCOCC3)c3nc(C(=O)N4CCS(=O)(=O)CC4)[nH]c3n2)cn1 [compound 15, (1,1-Dioxidothiomorpholin-4-yl)[2-(1-methyl-1H-pyrazol-4-yl)-6-(morpholin-4-yl)-9H-purin-8-yl]methanone] | 0.123 µM
Cc1n[nH]c(C)c1-c1nc(N2CCOCC2)c2nc(C(=O)N3CCC(N4CCOCC4)CC3)[nH]c2n1 [compound 16, [2-(3,5-Dimethyl-1H-pyrazol-4-yl)-6-(morpholin-4-yl)-9H-purin-8-yl][4-(morpholin-4-yl)piperidin-1-yl]methanone] | 0.088 µM
CC(C)n1cc(-c2nc(N3CCOCC3)c3nc(C(=O)N4CCC(N5CCOCC5)CC4)[nH]c3n2)cn1 [compound 18, [4-(Morpholin-4-yl)piperidin-1-yl]{6-(morpholin-4-yl)-2-[1-(propan-2-yl)-1H-pyrazol-4-yl]-9H-purin-8-yl}methanone] | 0.23 µM
Cn1cc(-c2nc(N3CCOCC3)c3nc(C(=O)N4CCNCC4)[nH]c3n2)cn1 [compound 20, [2-(1-Methyl-1H-pyrazol-4-yl)-6-(morpholin-4-yl)-9H-purin-8-yl](piperazin-1-yl)methanone] | 0.086 µM
CCn1c(C(=O)N2CCC(N(C)C)CC2)nc2c(N3CCOCC3)nc(-c3cnn(C)c3)nc21 [compound 21, [4-(Dimethylamino)piperidin-1-yl][9-ethyl-2-(1-methyl-1H-pyrazol-4-yl)-6-(morpholin-4-yl)-9H-purin-8-yl]methanone] | 0.313 µM
CCn1c(C(=O)N2CCC(N3CCOCC3)CC2)nc2c(N3CCOCC3)nc(-c3cnn(C)c3)nc21 [compound 22, [9-Ethyl-2-(1-methyl-1-pyrazol-4-yl)-6-(morpholin-4-yl)-9H-purin-8-yl][4-(morpholin-4-yl)piperidin-1-yl]methanone] | 0.368 µM
Cn1cc(-c2nc(N3CCOCC3)c3nc(C(=O)N4CCC(N5CCOCC5)CC4)n(C)c3n2)cn1 [compound 23, [9-Methyl-2-(1-methyl-1H-pyrazol-4-yl)-6-(morpholin-4-yl)-9H-purin-8-yl][4-(morpholin-4-yl)piperidin-1-yl]methanone] | 0.198 µM
Cn1cc(-c2nc(N3CCOCC3)c3nc(C(=O)N4CCN(C(=O)c5ncccn5)CC4)[nH]c3n2)cn1 [compound 25, [2-(1-Methyl-1H-pyrazol-4-yl)-6-(morpholin-4-yl)-9H-purin-8-yl][4-(pyrimidin-2-ylcarbonyl)piperazin-1-yl]methanone] | 0.099 µM
CC(=O)NC1CCN(C(=O)c2nc3c(N4CCOCC4)nc(-c4cnn(C)c4)nc3[nH]2)CC1 [compound 26, N-(1-{[2-(1-methyl-1H-pyrazol-4-yl)-6-(morpholin-4-yl)-9H-purin-8-yl]carbonyl}piperidin-4-yl)acetamide] | 0.101 µM
Cn1cc(-c2nc(N3CCOCC3)c3nc(C(=O)N4CCN(c5ncccn5)CC4)[nH]c3n2)cn1 [compound 27, [2-(1-Methyl-1H-pyrazol-4-yl)-6-(morpholin-4-yl)-9H-purin-8-yl][4-(pyrimidin-2-yl)piperazin-1-yl]methanone] | 0.128 µM
Cn1cc(-c2nc(N3CCOCC3)c3nc(C(=O)N4CCC(NS(C)(=O)=O)CC4)[nH]c3n2)cn1 [compound 28, N-(1-{[2-(1-methyl-1H-pyrazol-4-yl)-6-(morpholin-4-yl)-9H-purin-8-yl]carbonyl}piperidin-4-yl)methanesulfonamide] | 0.069 µM
Cn1cc(-c2nc(N3CCOCC3)c3nc(C(=O)N4CCN(C(=O)Cc5cnccn5)CC4)[nH]c3n2)cn1 [compound 29, 1-(4-{[2-(1-Methyl-1H-pyrazol-4-yl)-6-(morpholin-4-yl)-9H-purin-8-yl]carbonyl}piperazin-1-yl)-2-(pyrazin-2-yl)ethanone] | 0.14 µM
Cn1cc(-c2nc(N3CCOCC3)c3nc(C(=O)N4CCn5ccnc5C4)[nH]c3n2)cn1 [compound 30, 5,6-Dihydroimidazo[1,2-a]pyrazin-7(8H)-yl[2-(1-methyl-1H-pyrazol-4-yl)-6-(morpholin-4-yl)-9H-purin-8-yl]methanone] | 0.627 µM
Cn1cc(-c2nc(N3CCOCC3)c3nc(C(=O)N4CCNC(=O)C4)[nH]c3n2)cn1 [compound 31, 4-{[2-(1-Methyl-1H-pyrazol-4-yl)-6-(morpholin-4-yl)-9H-purin-8-yl]carbonyl}piperazin-2-one] | 0.465 µM
Cn1cc(-c2nc(N3CCOCC3)c3nc(C(=O)N4CCN(c5ccccc5)CC4)[nH]c3n2)cn1 [compound 32, [2-(1-Methyl-1H-pyrazol-4-yl)-6-(morpholin-4-yl)-9H-purin-8-yl](4-phenylpiperazin-1-yl)methanone] | 0.056 µM
Cn1cc(-c2nc(N3CCOCC3)c3nc(C(=O)NC4CCCCC4)[nH]c3n2)cn1 [compound 33, N-cyclohexyl-2-(1-methyl-1H-pyrazol-4-yl)-6-(morpholin-4-yl)-9H-purine-8-carboxamide] | 0.366 µM
Cn1cc(-c2nc(N3CCOCC3)c3nc(C(=O)N4CCN(S(C)(=O)=O)CC4)[nH]c3n2)cn1 [compound 34, [2-(1-Methyl-1H-pyrazol-4-yl)-6-(morpholin-4-yl)-9H-purin-8-yl][4-(methylsulfonyl)piperazin-1-yl]methanone] | 0.305 µM
Cn1cc(-c2nc(N3CCOCC3)c3nc(C(=O)N4CCC(c5ccccc5)CC4)[nH]c3n2)cn1 [compound 35, [2-(1-Methyl-1H-pyrazol-4-yl)-6-(morpholin-4-yl)-9H-purin-8-yl](4-phenylpiperidin-1-yl)methanone] | 0.017 µM
CN(C)[C@H]1CCN(C(=O)c2nc3c(N4CCOCC4)nc(-c4cnn(C)c4)nc3[nH]2)C1 [compound 44, [(3S)-3-(Dimethylamino)pyrrolidin-1-yl][2-(1-methyl-1H-pyrazol-4-yl)-6-(morpholin-4-yl)-9H-purin-8-yl]methanone] | 0.076 µM

Continued by falling IC50, values first:

IC50 | SMILES
0.057 µM | Cn1cc(-c2nc(N3CCOCC3)c3nc(C(=O)N4CCN(C(=O)OC(C)(C)C)CC4)[nH]c3n2)cn1 [compound 43, Tert-butyl 4-{[2-(1-methyl-1H-pyrazol-4-yl)-6-(morpholin-4-yl)-9H-purin-8-yl]carbonyl}piperazine-1-carboxylate]
0.048 µM | CCOC(=O)CN1CCN(C(=O)c2nc3c(N4CCOCC4)nc(-c4cnn(C)c4)nc3[nH]2)CC1 [compound 45, Ethyl (4-{[2-(1-methyl-1H-pyrazol-4-yl)-6-(morpholin-4-yl)-9H-purin-8-yl]carbonyl}piperazin-1-yl)acetate]
0.034 µM | Cc1nn(C)cc1-c1nc(N2CCOCC2)c2nc(C(=O)N3CCC(C(C)(C)O)CC3)[nH]c2n1 [compound 12, [2-(1,3-Dimethyl-1H-pyrazol-4-yl)-6-(morpholin-4-yl)-9H-purin-8-yl][4-(2-hydroxypropan-2-yl)piperidin-1-yl]methanone]
0.031 µM | CC(=O)N[C@H]1CCN(C(=O)c2nc3c(N4CCOCC4)nc(-c4cnn(C)c4)nc3[nH]2)C1 [compound 37, N-[(3S)-1-{[2-(1-methyl-1H-pyrazol-4-yl)-6-(morpholin-4-yl)-9H-purin-8-yl]carbonyl}pyrrolidin-3-yl]acetamide]
0.028 µM | Cc1c(-c2nc(N3CCOCC3)c3nc(C(=O)N4CCC(N5CCOCC5)CC4)[nH]c3n2)cnn1C [compound 40, [2-(1,5-Dimethyl-1H-pyrazol-4-yl)-6-(morpholin-4-yl)-9H-purin-8-yl][4-(morpholin-4-yl)piperidin-1-yl]methanone]
0.026 µM | Cn1cc(-c2nc(N3CCOCC3)c3nc(C(=O)N4CCN(C5CCOCC5)CC4)[nH]c3n2)cn1 [compound 11, [2-(1-Methyl-1H-pyrazol-4-yl)-6-(morpholin-4-yl)-9H-purin-8-yl][4-(tetrahydro-2H-pyran-4-yl)piperazin-1-yl]methanone]
0.026 µM | CC(=O)N1CCN(C(=O)c2nc3c(N4CCOCC4)nc(-c4cnn(C)c4)nc3[nH]2)CC1 [compound 39, 1-(4-{[2-(1-Methyl-1H-pyrazol-4-yl)-6-(morpholin-4-yl)-9H-purin-8-yl]carbonyl}piperazin-1-yl)ethanone]
0.02 µM | Cn1cc(-c2nc(N3CCOCC3)c3nc(C(=O)N4CC[C@@H](NS(C)(=O)=O)C4)[nH]c3n2)cn1 [compound 38, N-[(3R)-1-{[2-(1-methyl-1H-pyrazol-4-yl)-6-(morpholin-4-yl)-9H-purin-8-yl]carbonyl}pyrrolidin-3-yl]methanesulfonamide]
0.015 µM | Cn1cc(-c2nc(N3CCOCC3)c3nc(C(=O)NCC4CCCCC4)[nH]c3n2)cn1 [compound 36, N-(Cyclohexylmethyl)-2-(1-methyl-1H-pyrazol-4-yl)-6-(morpholin-4-yl)-9H-purine-8-carboxamide]
0.012 µM | Cn1cc(-c2nc(N3CCOCC3)c3nc(C(=O)N4CCC(N5CCOCC5)CC4)[nH]c3n2)c(C(F)(F)F)n1 [compound 17, {2-[1-Methyl-3-(trifluoromethyl)-1H-pyrazol-4-yl]-6-(morpholin-4-yl)-9H-purin-8-yl}[4-(morpholin-4-yl)piperidin-1-yl]methanone]
